Results from ChEMBL document CHEMBL5653631, “A Potent and Selective ULK1 Inhibitor Suppresses Autophagy and Sensitizes Cancer Cells to Nutrient Stress” (iScience, 2018).
One block for each compound: values may come before it.

Experiments:
[1] = target: T1, Mitogen-activated protein kinase 13 (Homo sapiens) (UniProt O15264); assay: Inhibition of human recombinant p38delta at 500 nM related to control ULK1
T1 sequence (whole entry): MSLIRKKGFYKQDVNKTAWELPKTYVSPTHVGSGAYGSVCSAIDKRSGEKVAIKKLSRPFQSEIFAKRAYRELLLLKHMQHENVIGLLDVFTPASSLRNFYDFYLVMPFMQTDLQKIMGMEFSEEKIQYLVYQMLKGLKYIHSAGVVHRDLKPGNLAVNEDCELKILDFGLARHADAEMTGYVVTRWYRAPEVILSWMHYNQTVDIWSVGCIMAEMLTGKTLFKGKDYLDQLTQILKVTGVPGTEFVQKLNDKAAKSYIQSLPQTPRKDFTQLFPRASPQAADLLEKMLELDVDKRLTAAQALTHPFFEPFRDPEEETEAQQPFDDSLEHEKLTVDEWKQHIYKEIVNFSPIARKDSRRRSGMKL

[2] = target: T2, Testis-specific serine/threonine-protein kinase 1 (Homo sapiens) (UniProt Q9BXA7); assay: Inhibition of human recombinant TSSK1 at 500 nM in presence of ATP by radiometric assay relative to control
T2 sequence (whole entry): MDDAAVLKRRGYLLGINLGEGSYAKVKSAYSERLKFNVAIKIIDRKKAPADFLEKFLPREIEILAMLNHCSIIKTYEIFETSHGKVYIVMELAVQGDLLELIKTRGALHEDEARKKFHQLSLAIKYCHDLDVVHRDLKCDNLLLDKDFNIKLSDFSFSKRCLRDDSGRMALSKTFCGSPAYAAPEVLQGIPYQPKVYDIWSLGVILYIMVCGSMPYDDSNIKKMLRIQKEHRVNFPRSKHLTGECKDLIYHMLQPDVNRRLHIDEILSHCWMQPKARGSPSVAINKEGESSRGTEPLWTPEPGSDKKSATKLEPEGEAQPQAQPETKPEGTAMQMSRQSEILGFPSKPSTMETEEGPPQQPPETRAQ

[3] = target: Serine/threonine-protein kinase 26 (Homo sapiens) (UniProt Q9P289); assay: Inhibition of human recombinant MST4 at 500 nM in presence of ATP by radiometric assay relative to control
Sequence of Serine/threonine-protein kinase 26 (Homo sapiens) (Q9P289 2-416 limits assumed): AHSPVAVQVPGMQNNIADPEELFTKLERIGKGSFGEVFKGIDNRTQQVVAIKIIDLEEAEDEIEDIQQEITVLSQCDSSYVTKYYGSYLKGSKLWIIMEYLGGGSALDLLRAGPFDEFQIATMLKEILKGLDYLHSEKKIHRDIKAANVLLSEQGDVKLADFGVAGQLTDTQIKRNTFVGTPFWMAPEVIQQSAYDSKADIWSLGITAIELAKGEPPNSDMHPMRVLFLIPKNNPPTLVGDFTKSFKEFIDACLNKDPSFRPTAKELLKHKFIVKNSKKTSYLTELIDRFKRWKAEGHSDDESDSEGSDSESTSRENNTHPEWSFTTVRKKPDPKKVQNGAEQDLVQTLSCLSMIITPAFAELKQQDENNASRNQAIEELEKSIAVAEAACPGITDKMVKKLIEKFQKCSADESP

[4] = target: Casein kinase II subunit alpha (Homo sapiens) (UniProt P68400); assay: Inhibition of human recombinant CK2a1 at 500 nM related to control ULK1
Sequence of Casein kinase II subunit alpha (Homo sapiens) (P68400 whole entry, looked up): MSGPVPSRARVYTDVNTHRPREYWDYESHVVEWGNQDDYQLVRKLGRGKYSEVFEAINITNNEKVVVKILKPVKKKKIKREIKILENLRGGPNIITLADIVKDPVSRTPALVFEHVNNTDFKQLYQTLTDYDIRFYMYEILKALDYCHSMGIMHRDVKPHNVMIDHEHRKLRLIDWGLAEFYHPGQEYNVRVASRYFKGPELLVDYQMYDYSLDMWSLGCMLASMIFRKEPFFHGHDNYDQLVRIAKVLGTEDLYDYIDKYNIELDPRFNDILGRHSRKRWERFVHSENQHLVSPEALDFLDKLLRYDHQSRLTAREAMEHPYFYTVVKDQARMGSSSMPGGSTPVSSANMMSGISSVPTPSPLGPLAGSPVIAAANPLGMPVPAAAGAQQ

Homo sapiens = organism: Homo sapiens; assay: Inhibition of human recombinant p70S6K at 15 nM related to control ULK1
[5] = target: Hepatocyte growth factor receptor MET (Homo sapiens) (UniProt P08581); assay: Inhibition of human recombinant MET at 15 nM in presence of ATP by radiometric assay relative to control
Sequence of Hepatocyte growth factor receptor MET (Homo sapiens) (P08581 whole entry, looked up): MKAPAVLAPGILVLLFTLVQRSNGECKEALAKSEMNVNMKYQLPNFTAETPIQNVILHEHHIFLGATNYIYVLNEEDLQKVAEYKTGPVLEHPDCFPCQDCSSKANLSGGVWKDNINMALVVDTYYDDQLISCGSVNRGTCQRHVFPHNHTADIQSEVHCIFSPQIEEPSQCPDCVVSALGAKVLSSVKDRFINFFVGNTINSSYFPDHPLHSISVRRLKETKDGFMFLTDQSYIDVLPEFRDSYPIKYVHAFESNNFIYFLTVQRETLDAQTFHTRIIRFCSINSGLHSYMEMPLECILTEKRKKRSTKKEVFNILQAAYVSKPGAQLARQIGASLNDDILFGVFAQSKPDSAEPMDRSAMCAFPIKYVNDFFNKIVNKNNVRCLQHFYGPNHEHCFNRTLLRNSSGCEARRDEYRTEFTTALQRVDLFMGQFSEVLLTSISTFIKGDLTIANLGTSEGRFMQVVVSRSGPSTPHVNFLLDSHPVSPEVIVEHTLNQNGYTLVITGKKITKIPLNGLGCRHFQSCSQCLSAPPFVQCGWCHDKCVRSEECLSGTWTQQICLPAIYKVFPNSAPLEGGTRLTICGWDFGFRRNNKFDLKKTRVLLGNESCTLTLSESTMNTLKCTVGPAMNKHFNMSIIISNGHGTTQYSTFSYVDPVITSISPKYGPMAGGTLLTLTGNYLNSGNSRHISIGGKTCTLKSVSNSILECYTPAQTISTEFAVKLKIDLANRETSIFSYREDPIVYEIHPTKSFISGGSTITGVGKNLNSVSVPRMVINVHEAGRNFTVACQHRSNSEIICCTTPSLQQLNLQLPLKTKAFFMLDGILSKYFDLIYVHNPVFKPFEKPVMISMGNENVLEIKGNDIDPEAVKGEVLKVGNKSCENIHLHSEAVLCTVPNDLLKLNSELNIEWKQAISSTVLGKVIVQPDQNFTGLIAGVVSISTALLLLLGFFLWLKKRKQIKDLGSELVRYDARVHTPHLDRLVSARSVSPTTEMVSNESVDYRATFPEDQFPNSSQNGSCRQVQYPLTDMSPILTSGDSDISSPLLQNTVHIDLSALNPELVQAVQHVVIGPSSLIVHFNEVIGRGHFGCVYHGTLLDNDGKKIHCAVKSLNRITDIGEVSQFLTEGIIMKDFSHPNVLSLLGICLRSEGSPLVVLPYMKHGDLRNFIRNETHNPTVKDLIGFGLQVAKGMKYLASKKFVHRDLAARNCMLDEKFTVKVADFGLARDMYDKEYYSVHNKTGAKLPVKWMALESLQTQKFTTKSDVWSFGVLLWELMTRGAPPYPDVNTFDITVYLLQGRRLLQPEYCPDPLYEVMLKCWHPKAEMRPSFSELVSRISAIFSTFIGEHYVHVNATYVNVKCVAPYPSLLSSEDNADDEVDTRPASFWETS

[6] = target: T3, Serine/threonine-protein kinase TAO3 (Homo sapiens) (UniProt Q9H2K8); assay: Inhibition of human recombinant TAO3 at 40 nM in presence of ATP by radiometric assay relative to control
T3 sequence (whole entry): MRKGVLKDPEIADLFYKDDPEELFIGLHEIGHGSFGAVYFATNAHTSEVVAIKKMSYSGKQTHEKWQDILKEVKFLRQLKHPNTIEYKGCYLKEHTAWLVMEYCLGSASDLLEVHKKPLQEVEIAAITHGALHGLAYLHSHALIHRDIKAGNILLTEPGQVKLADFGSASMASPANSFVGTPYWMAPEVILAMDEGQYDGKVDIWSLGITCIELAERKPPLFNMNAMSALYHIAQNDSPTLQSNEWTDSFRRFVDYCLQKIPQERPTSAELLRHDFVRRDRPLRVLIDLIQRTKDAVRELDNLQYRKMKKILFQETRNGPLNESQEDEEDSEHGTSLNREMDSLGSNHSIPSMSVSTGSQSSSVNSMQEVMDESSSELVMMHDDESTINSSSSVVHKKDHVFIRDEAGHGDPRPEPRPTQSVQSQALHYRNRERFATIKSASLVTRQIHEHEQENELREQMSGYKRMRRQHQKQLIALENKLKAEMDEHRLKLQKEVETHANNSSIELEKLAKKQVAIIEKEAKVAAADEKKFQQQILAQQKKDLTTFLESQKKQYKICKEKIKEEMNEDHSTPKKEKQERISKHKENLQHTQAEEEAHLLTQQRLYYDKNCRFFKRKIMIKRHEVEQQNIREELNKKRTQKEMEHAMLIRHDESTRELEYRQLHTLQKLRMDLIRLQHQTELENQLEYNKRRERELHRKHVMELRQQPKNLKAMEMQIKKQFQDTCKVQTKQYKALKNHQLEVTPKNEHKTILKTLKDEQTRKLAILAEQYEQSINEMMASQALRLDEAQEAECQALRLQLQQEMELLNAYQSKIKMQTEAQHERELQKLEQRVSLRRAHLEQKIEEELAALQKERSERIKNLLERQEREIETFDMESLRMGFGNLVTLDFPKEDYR

[7] = target: MAP kinase-activated protein kinase 3 (Homo sapiens) (UniProt Q16644); assay: Inhibition of human recombinant MAPKAPK3 at 40 nM related to control ULK1
Sequence of MAP kinase-activated protein kinase 3 (Homo sapiens) (Q16644 whole entry, looked up): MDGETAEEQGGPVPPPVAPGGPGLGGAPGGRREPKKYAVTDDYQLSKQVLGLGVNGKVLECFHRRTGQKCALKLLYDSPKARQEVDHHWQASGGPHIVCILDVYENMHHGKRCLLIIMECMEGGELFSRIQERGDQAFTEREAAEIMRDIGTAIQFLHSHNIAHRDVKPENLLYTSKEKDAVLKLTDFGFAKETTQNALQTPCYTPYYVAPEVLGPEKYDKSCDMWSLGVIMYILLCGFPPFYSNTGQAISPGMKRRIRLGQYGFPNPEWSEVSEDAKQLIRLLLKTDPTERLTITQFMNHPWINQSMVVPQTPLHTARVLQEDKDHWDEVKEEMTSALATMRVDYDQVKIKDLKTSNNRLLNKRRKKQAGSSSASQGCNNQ

[8] = target: T4, Tyrosine-protein kinase receptor TYRO3 (Homo sapiens) (UniProt Q06418); assay: Inhibition of human recombinant TYRO3 at 40 nM in presence of ATP by radiometric assay relative to control
T4 sequence (whole entry): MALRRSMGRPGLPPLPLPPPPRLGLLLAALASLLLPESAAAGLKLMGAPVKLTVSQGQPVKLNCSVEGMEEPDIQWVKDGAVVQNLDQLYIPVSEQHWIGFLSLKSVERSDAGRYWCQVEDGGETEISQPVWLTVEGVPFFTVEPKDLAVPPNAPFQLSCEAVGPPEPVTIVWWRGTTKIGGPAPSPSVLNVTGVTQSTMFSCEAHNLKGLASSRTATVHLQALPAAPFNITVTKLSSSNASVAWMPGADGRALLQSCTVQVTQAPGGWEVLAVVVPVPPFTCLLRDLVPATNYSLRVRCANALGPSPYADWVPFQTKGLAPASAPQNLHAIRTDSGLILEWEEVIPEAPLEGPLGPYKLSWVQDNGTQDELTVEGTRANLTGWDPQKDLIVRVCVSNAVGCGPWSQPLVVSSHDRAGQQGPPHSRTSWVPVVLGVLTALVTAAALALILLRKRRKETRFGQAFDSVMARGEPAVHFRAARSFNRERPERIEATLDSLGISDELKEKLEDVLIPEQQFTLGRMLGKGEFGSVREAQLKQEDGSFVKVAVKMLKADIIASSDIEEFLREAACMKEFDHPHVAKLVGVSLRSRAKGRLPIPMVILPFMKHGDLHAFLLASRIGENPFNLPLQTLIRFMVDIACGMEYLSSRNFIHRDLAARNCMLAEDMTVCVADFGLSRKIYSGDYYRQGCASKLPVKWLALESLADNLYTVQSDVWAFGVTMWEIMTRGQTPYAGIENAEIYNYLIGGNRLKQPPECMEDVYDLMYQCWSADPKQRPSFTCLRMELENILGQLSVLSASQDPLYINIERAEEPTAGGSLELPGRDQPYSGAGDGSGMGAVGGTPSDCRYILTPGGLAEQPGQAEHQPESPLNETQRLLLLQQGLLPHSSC

- fold change (FC) [1]: 0.26
- inhibition [2]: 0%
- inhibition [3]: 0%
- fold change (FC) [4]: 0.19
Compound: CNC(=O)c1ccccc1Oc1nc(Nc2cc(OC)c(OC)c(OC)c2)ncc1Br

- fold change (FC) (Homo sapiens): 0.19
- inhibition [5]: 0%
Compound: CC(C)[C@H](NC(=O)c1cc(-c2cnn3cc(-c4ccc(OCCN5CCCCC5)cc4)cnc23)cs1)C(F)(F)F

- inhibition [6]: 0%
- fold change (FC) [7]: 0
- inhibition [8]: 0%
Compound: O=C(N[C@@H](C1CC1)C(F)(F)F)c1cc(-c2cnn3cc(-c4ccc(F)cc4)cnc23)cs1
